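Assay format: 96-well plates, 48-hour exposure. At the GI50, growth is halved. At the TGI there is no net growth.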
Key:
Test in all cases: NCI tumour cell line growth inhibition, 48 h; in the data active means GI50 below about 0.43 µM; inactive means the rest
SN12C renal = tested on: SN12C renal
NCI-H522 lung = tested on: NCI-H522 lung
SK-MEL-28 melanoma = tested on: SK-MEL-28 melanoma
A549 NSCLC = tested on: A549 NSCLC
TK-10 renal = tested on: TK-10 renal
HCC-2998 colon = tested on: HCC-2998 colon
CAKI-1 renal = tested on: CAKI-1 renal
UACC-62 melanoma = tested on: UACC-62 melanoma
ACHN renal = tested on: ACHN renal
OVCAR-5 ovarian = tested on: OVCAR-5 ovarian

CCOC(=O)C1=C(Nc2ccc(Br)cc2)OCC1=O
> 100 µM: TGI (SN12C renal) | TGI (NCI-H522 lung) | TGI (SK-MEL-28 melanoma) | TGI (A549 NSCLC) | TGI (TK-10 renal) | TGI (HCC-2998 colon) | TGI (CAKI-1 renal) | TGI (UACC-62 melanoma) | TGI (ACHN renal)

CCOC(=O)C(C)(c1c(C)[nH]c2ccccc12)c1c(C)[nH]c2ccccc12
56.6 µM: TGI (ACHN renal)
45.6 µM: TGI (TK-10 renal)
45.2 µM: TGI (HCC-2998 colon)
30.5 µM: TGI (SK-MEL-28 melanoma)
35.5 µM: TGI (OVCAR-5 ovarian)
45.4 µM: TGI (CAKI-1 renal)
49.7 µM: TGI (A549 NSCLC)
29.6 µM: TGI (UACC-62 melanoma)

CC1CCC(C(C)(C)c2ccccc2)C(=O)C1 (stereo not drawn)
> 100 µM: TGI (SN12C renal) | TGI (A549 NSCLC) | TGI (TK-10 renal) | TGI (OVCAR-5 ovarian) | TGI (HCC-2998 colon) | TGI (CAKI-1 renal) | TGI (UACC-62 melanoma) | TGI (ACHN renal)

COC(=O)c1c[nH]cc1CCCCc1c[nH]cc1C(=O)OC
> 100 µM: TGI (SN12C renal) | TGI (NCI-H522 lung) | TGI (SK-MEL-28 melanoma) | TGI (A549 NSCLC) | TGI (TK-10 renal) | TGI (OVCAR-5 ovarian) | TGI (HCC-2998 colon) | TGI (CAKI-1 renal) | TGI (ACHN renal)

C=C1C(=O)OC2C1CC(OC(C)=O)/C(C)=C/CCC1(C)OC21 (stereo not drawn)
> 100 µM: TGI (SN12C renal) | TGI (NCI-H522 lung) | TGI (SK-MEL-28 melanoma) | TGI (A549 NSCLC) | TGI (OVCAR-5 ovarian) | TGI (HCC-2998 colon) | TGI (CAKI-1 renal) | TGI (UACC-62 melanoma) | TGI (ACHN renal)

Cc1sc2c(c1C)C(c1ccc(Cl)cc1)=N[C@@H](CC(=O)Nc1ccc(OCCOCCOCCOCCNc3cccc4c3C(=O)N(C3CCC(=O)NC3=O)C4=O)cc1)c1nnc(C)n1-2 (stereo partly drawn)
> 100 µM: TGI (SN12C renal) | TGI (NCI-H522 lung) | TGI (SK-MEL-28 melanoma) | TGI (A549 NSCLC) | TGI (OVCAR-5 ovarian) | TGI (HCC-2998 colon) | TGI (UACC-62 melanoma) | TGI (ACHN renal)
> 43.7 µM: TGI (TK-10 renal)
active: GI50 (A549 NSCLC) 0.338 µM | GI50 (TK-10 renal) 0.189 µM | GI50 (OVCAR-5 ovarian) < 0.0465 µM | GI50 (HCC-2998 colon) 0.0796 µM | GI50 (UACC-62 melanoma) < 0.0462 µM
inactive: GI50 (NCI-H522 lung) 0.518 µM | GI50 (SK-MEL-28 melanoma) 16.8 µM | GI50 (ACHN renal) 0.753 µM

COc1ccc(-c2cc(-c3ccc(Nc4ccnc5cc(Cl)ccc45)cc3)nc(N3CCOCC3)n2)cc1
> 100 µM: TGI (OVCAR-5 ovarian) | TGI (HCC-2998 colon)
inactive: GI50 (OVCAR-5 ovarian) > 100 µM | GI50 (HCC-2998 colon) > 100 µM

CC(C)(C)OC(=O)N1C2CCCC23O[C@@H]1c1cc2c(cc1C3=O)OCO2 (stereo partly drawn)
87.1 µM: TGI (CAKI-1 renal)
> 100 µM: TGI (SN12C renal) | TGI (SK-MEL-28 melanoma) | TGI (A549 NSCLC) | TGI (TK-10 renal) | TGI (OVCAR-5 ovarian) | TGI (ACHN renal)
67 µM: TGI (UACC-62 melanoma)
31.3 µM: TGI (NCI-H522 lung)

CC(=O)NC1CONC1=O (stereo not drawn)
> 100 µM: TGI (SN12C renal) | TGI (NCI-H522 lung) | TGI (SK-MEL-28 melanoma) | TGI (A549 NSCLC) | TGI (TK-10 renal) | TGI (OVCAR-5 ovarian) | TGI (CAKI-1 renal) | TGI (UACC-62 melanoma) | TGI (ACHN renal)

C=CCn1c(SCC(=O)Nc2ccc(C(=O)/C=C/c3cc(OC)c(OC)c(OC)c3)cc2)nnc1-c1ccc(OC)cc1
active: GI50 (HCC-2998 colon) 0.175 µM
19.1 µM: TGI (SN12C renal)
inactive: GI50 (SN12C renal) 0.839 µM | GI50 (NCI-H522 lung) 0.689 µM | GI50 (SK-MEL-28 melanoma) 0.709 µM | GI50 (A549 NSCLC) 0.875 µM | GI50 (TK-10 renal) 1.6 µM | GI50 (UACC-62 melanoma) 0.865 µM
4.83 µM: TGI (A549 NSCLC)
6.18 µM: TGI (TK-10 renal)
3.37 µM: TGI (NCI-H522 lung)
3.78 µM: TGI (UACC-62 melanoma)
73.8 µM: TGI (SK-MEL-28 melanoma)
0.379 µM: TGI (HCC-2998 colon)

Cn1c(=S)c2[nH]c(SCCCc3ccccc3)nc2n(C)c1=O
78.9 µM: TGI (TK-10 renal)
93.3 µM: TGI (OVCAR-5 ovarian)
> 100 µM: TGI (SN12C renal) | TGI (NCI-H522 lung) | TGI (SK-MEL-28 melanoma) | TGI (CAKI-1 renal) | TGI (UACC-62 melanoma) | TGI (ACHN renal)
72 µM: TGI (A549 NSCLC)

COc1cc(/C=N\O[Si](C)(C)C(C)(C)C)ccc1O[Si](C)(C)C(C)(C)C
> 100 µM: TGI (SN12C renal) | TGI (A549 NSCLC) | TGI (TK-10 renal) | TGI (CAKI-1 renal) | TGI (UACC-62 melanoma) | TGI (ACHN renal)
56.8 µM: TGI (HCC-2998 colon)
68.7 µM: TGI (OVCAR-5 ovarian)

O=C1C2[C@@H](C(=O)N1c1ccc(Br)cc1)C13C(=CC2([N+](=O)[O-])[C@@H]2C(=O)N(c4ccc(Br)cc4)C(=O)[C@@H]21)c1ccccc1N3c1ccccc1 (stereo partly drawn)
> 100 µM: TGI (SN12C renal) | TGI (NCI-H522 lung) | TGI (SK-MEL-28 melanoma) | TGI (A549 NSCLC) | TGI (TK-10 renal) | TGI (OVCAR-5 ovarian) | TGI (HCC-2998 colon) | TGI (ACHN renal)

O=C1c2ccc3c4ccccc4n(-c4ccccc4)c3c2C(=O)N1c1ccc(Cl)cc1
> 100 µM: TGI (SN12C renal) | TGI (NCI-H522 lung) | TGI (A549 NSCLC) | TGI (TK-10 renal) | TGI (OVCAR-5 ovarian) | TGI (HCC-2998 colon) | TGI (CAKI-1 renal) | TGI (UACC-62 melanoma) | TGI (ACHN renal)

N#Cc1c(-c2ccco2)cc(-c2ccc(N)cc2)[nH]c1=O
> 100 µM: TGI (SN12C renal) | TGI (NCI-H522 lung) | TGI (SK-MEL-28 melanoma) | TGI (A549 NSCLC) | TGI (TK-10 renal) | TGI (OVCAR-5 ovarian) | TGI (HCC-2998 colon) | TGI (UACC-62 melanoma) | TGI (ACHN renal)

CC(=O)OCCOCNC(=S)N/N=C/c1ccc([N+](=O)[O-])s1
> 100 µM: TGI (SN12C renal) | TGI (SK-MEL-28 melanoma) | TGI (A549 NSCLC) | TGI (TK-10 renal) | TGI (OVCAR-5 ovarian) | TGI (HCC-2998 colon) | TGI (UACC-62 melanoma) | TGI (ACHN renal)
24.5 µM: TGI (NCI-H522 lung)
